Laboratory results reported in patent US12570655B2, “Cysteine covalent modifiers of AKT1 and uses thereof” (Terremoto Biosciences, Inc., priority 2023, dated 2026).
pIC50: −log10 of the molar value.

Key:
Type in all cases: cell-based
[1] = target: T1, AKT2 (Homo sapiens, UniProt P31751); test: Live cell AKT2 target engagement by NanoBRET competitive probe displacement; settings: HEK293 cells transfected with kinase-NanoLuciferase fusion, 2 h at 37° C.
T1 construct: expressed in transfected cells; host or cells: HEK293
T1 sequence (P31751 whole entry, the tested form may be a part): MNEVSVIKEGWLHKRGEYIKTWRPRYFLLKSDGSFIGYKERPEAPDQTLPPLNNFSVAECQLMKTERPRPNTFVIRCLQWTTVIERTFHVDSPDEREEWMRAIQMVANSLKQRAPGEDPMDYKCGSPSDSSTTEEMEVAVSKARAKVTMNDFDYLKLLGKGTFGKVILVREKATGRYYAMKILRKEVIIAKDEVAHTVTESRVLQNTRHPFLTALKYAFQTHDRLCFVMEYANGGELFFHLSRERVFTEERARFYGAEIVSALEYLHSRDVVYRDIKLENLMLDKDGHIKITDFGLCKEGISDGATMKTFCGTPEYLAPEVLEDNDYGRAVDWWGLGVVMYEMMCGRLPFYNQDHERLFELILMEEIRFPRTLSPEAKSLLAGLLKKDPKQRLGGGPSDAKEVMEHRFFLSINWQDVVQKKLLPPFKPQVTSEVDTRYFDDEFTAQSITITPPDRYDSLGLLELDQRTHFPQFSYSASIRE
Description: (§1) Determining Live Cell AKT1 E17K, AKT1 WT, and AKT2 Target Engagement by NanoBRET Competitive Probe Displacement.
(§2) Live cell target engagement assays were performed as described (Vasta, J. D. et al. Cell Chem Biol 2018, 25(11), 206-214). Briefly, HEK293 cells were transfected with plasmids encoding kinase-NanoLuciferase fusion proteins overnight. Cells were then treated with serial dilutions of compound and an ˜EC50 concentration of fluorescently-tagged ATP-competitive tracer (Promega). After incubation for 2 h at 37° C., luciferase substrate and extracellular luciferase inhibitor were added to all wells, and luminescent intensity at 460 nm and 600 nm were measured on a multimode plate-reader. The ratio of E600/E460 was calculated to give the tracer engagement signal (BRET). IC50 values were calculated by fitting BRET values to a log(inhibitor) vs. response Hill equation.

[2] = target: T2, AKT1 E17K (Homo sapiens, UniProt P31749, E17K); test: Live cell AKT1 E17K target engagement by NanoBRET competitive probe displacement; settings: HEK293 cells transfected with kinase-NanoLuciferase fusion, 2 h at 37° C.
T2 construct: expressed in transfected cells; host or cells: HEK293
T2 sequence (P31749 whole entry E17K, the tested form may be a part): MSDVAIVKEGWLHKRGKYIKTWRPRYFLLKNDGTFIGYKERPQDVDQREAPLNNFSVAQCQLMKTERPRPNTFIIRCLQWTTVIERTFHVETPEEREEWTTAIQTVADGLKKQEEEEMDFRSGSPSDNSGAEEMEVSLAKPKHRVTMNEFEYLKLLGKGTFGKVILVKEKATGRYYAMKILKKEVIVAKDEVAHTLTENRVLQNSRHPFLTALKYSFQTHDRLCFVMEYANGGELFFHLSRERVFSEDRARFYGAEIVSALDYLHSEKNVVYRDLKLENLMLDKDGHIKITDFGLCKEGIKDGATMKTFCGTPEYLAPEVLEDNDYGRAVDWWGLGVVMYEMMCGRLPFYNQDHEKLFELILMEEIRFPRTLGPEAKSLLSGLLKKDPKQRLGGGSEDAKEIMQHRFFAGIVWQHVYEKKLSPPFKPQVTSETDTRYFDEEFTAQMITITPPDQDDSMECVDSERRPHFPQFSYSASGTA
Procedure, shortened: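 Steps: overnight transfection of HEK293 with kinase-NanoLuc plasmids; addition of compound dilutions and tracer (~EC50); 2 h incubation at 37 °C; substrate plus extracellular luciferase inhibitor; luminescence at 460 and 600 nm. IC50 values came from fitting the BRET ratio to a Hill equation.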

[3] = target: T3, AKT1 WT (Homo sapiens, UniProt P31749); test: Live cell AKT1 WT target engagement by NanoBRET competitive probe displacement; settings: HEK293 cells transfected with kinase-NanoLuciferase fusion, 2 h at 37° C.
T3 construct: expressed in transfected cells; host or cells: HEK293
T3 sequence (P31749 whole entry, the tested form may be a part): as the sequence (P31749 whole entry E17K, the tested form may be a part) above, with K17E counted along it
Description: as §1, §2

[4] = test system: LAPC4 prostate cancer cells; test: Antiproliferative effects in LAPC4 cells (CellTiter Glo); settings: LAPC4 cells (AKT1 E17K allele), 72 h, read-out: LAPC4 proliferation IC50
Procedure, shortened: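 Growth inhibition is gauged by intracellular ATP content, measured with CellTiter Glo 72 h after compound addition to 1,000 seeded cells per well. IC50 derives from a Hill equation fit.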

Row | pIC50 [1] | pIC50 [2] | pIC50 [3] | pIC50 [4] | Compound
1 | 6.89 | 7.74 | 6.09 |  | C=CC(=O)N1CCC(N[C@@H]2c3ccc(-n4c(-c5ccccc5)nc5ccc(-n6cccn6)nc54)cc3CC2F)CC1C(F)F (single isomer, unassigned) [Example 331, 1-((2*,4*)-2-(difluoromethyl)-4-(((1R,2*)-2-fluoro-5-(2-phenyl-5-(1H-pyrazol-1-yl)-3H-imidazo[4,5-b]pyridin-3-yl)-2,3-dihydro-1H-inden-1-yl)amino)piperidin-1-yl)prop-2-en-1-one]
2 | 6.26 | 7.67 | 6.38 |  | C=CC(=O)N1CCC(CC2CCc3cc(-n4c(-c5cccnc5N)nc5ccc(-n6cccn6)nc54)ccc32)CC1 (single isomer, unassigned) [Example 344, 1-(4-(((*)-5-(2-(2-aminopyridin-3-yl)-5-(1H-pyrazol-1-yl)-3H-imidazo[4,5-b]pyridin-3-yl)-2,3-dihydro-1H-inden-1-yl)methyl)piperidin-1-yl)prop-2-en-1-one]
3 | 7.53 | 8.14 | 7.01 |  | C=CC(=O)N1CCC(N[C@H]2CCc3cc(-n4c(-c5cccnc5N)nc5ccc(-n6cccn6)nc54)ccc32)CC1CC#N (single isomer, unassigned) [Example 326, 2-((2*,4*)-1-acryloyl-4-(((S)-5-(2-(2-aminopyridin-3-yl)-5-(1H-pyrazol-1-yl)-3H-imidazo[4,5-b]pyridin-3-yl)-2,3-dihydro-1H-inden-1-yl)amino)piperidin-2-yl)acetonitrile]
4 | 6.06 | 7.49 |  | 5.75 | C=CC(=O)N1CCC(N[C@@H]2c3ccc(-n4c(-c5cccnc5N)nc5ccc(C6CC6)nc54)cc3CC2F)CC1 (single isomer, unassigned) [Example 203, 1-(4-(((1R,2*)-5-(2-(2-aminopyridin-3-yl)-5-cyclopropyl-3H-imidazo[4,5-b]pyridin-3-yl)-2-fluoro-2,3-dihydro-1H-inden-1-yl)amino)piperidin-1-yl)prop-2-en-1-one]
5 | 7.34 | 8.21 | 6.58 |  | C=CC(=O)N1CCC(N[C@H]2CCc3cc(-n4c(-c5cccnc5N)nc5ccc(-n6ccc(C7(F)CC7)n6)nc54)ccc32)CC1 [Example 323, 1-(4-{[(1S)-5-[2-(2-aminopyridin-3-yl)-5-[3-(1-fluorocyclopropyl)pyrazol-1-yl]imidazo[4,5-b]pyridin-3-yl]-2,3-dihydro-1H-inden-1-yl]amino}piperidin-1-yl)prop-2-en-1-one]
6 | < 5.00 |  | 6.14 |  | C=C(F)C(=O)N1CCC(N[C@H]2CCc3cc(-n4c(-c5cccnc5N)nc5ccc(-n6cccn6)nc54)ccc32)CC1 [Example 46, 1-(4-{[(1S)-5-[2-(2-aminopyridin-3-yl)-5-(pyrazol-1-yl)imidazo[4,5-b]pyridin-3-yl]-2,3-dihydro-1H-inden-1-yl]amino}piperidin-1-yl)-2-fluoroprop-2-en-1-one]
7 | 7.16 | 7.51 | 5.83 |  | C=CC(=O)N1CCC(N[C@@H]2c3ccc(-n4c(-c5ccccc5)nc5ccc(-n6cccn6)nc54)cc3CC2F)CC1C(F)F (single isomer, unassigned) [Example 330, 1-((2*,4*)-2-(difluoromethyl)-4-(((1R,2*)-2-fluoro-5-(2-phenyl-5-(1H-pyrazol-1-yl)-3H-imidazo[4,5-b]pyridin-3-yl)-2,3-dihydro-1H-inden-1-yl)amino)piperidin-1-yl)prop-2-en-1-one]
8 | 7.55 | 8.02 | 6.54 |  | C=CC(=O)N1CCC(NC2c3ccc(-n4c(-c5cccnc5N)nc5ccc(-n6ccc(C7CC7)n6)nc54)cc3CC2F)CC1C(F)F (single isomer, unassigned) [Example 335, 1-((2*,4*)-4-(((1*,2*)-5-(2-(2-aminopyridin-3-yl)-5-(3-cyclopropyl-1H-pyrazol-1-yl)-3H-imidazo[4,5-b]pyridin-3-yl)-2-fluoro-2,3-dihydro-1H-inden-1-yl)amino)-2-(difluoromethyl)piperidin-1-yl)prop-2-en-1-one]
9 | 6.68 | 7.29 |  | 6.29 | C=CC(=O)N1C[C@H]2COC[C@@H](C1)C2N[C@H]1CCc2cc(-n3c(-c4cccnc4N)nc4ccc(C5CC5)nc43)ccc21 (single isomer, unassigned) [Example 172, 1-((1R,5S,9*)-9-(((S)-5-(2-(2-aminopyridin-3-yl)-5-cyclopropyl-3H-imidazo[4,5-b]pyridin-3-yl)-2,3-dihydro-1H-inden-1-yl)amino)-3-oxa-7-azabicyclo[3.3.1]nonan-7-yl)prop-2-en-1-one]
10 | 6.95 | 7.72 |  | 6.27 | C=CC(=O)N1CCC(N[C@@H]2c3ccc(-n4c(-c5ccccc5F)nc5ccc(-n6cccn6)nc54)cc3CC2F)C[C@H]1C (single isomer, unassigned) [Example 316, 1-((2R,4*)-4-(((1R,2*)-2-fluoro-5-(2-(2-fluorophenyl)-5-(1H-pyrazol-1-yl)-3H-imidazo[4,5-b]pyridin-3-yl)-2,3-dihydro-1H-inden-1-yl)amino)-2-methylpiperidin-1-yl)prop-2-en-1-one]
11 | 7.80 | 8.18 | 7.06 |  | C=CC(=O)N1CCC(CC2CCc3cc(-n4c(-c5cccnc5N)nc5ccc(-n6cccn6)nc54)ccc32)CC1 (single isomer, unassigned) [Example 343, 1-(4-(((*)-5-(2-(2-aminopyridin-3-yl)-5-(1H-pyrazol-1-yl)-3H-imidazo[4,5-b]pyridin-3-yl)-2,3-dihydro-1H-inden-1-yl)methyl)piperidin-1-yl)prop-2-en-1-one]
12 | 7.20 | 7.47 | 6.57 |  | C=CC(=O)N1C[C@@H]2[C@H](C1)[C@@H]2NC1CCc2cc(-n3c(-c4cccnc4N)nc4ccc(-n5cccn5)nc43)ccc21 (stereo partly drawn) [Example 345, 1-[(1R,5S,6R)-6-({5-[2-(2-aminopyridin-3-yl)-5-(pyrazol-1-yl)imidazo[4,5-b]pyridin-3-yl]-2,3-dihydro-1H-inden-1-yl}amino)-3-azabicyclo[3.1.0]hexan-3-yl]prop-2-en-1-one]
13 | 7.00 | 8.10 | 6.53 |  | C=CC(=O)N1CCC(N[C@@H]2c3ccc(-n4c(-c5ccccc5)nc5ccc(-c6ccccc6)nc54)cc3CC2F)CC1 (single isomer, unassigned) [Example 325, 1-(4-{[(1R,2*)-5-{2,5-diphenylimidazo[4,5-b]pyridin-3-yl}-2-fluoro-2,3-dihydro-1H-inden-1-yl]amino}piperidin-1-yl)prop-2-en-1-one]
14 | 7.75 | 8.27 | 6.81 |  | C=CC(=O)N1CCC(N[C@@H]2c3ccc(-n4c(-c5ccccc5)nc5ccc(-n6cccn6)nc54)cc3CC2F)CC1C(F)F (single isomer, unassigned) [Example 329, 1-((2*,4*)-2-(difluoromethyl)-4-(((1R,2*)-2-fluoro-5-(2-phenyl-5-(1H-pyrazol-1-yl)-3H-imidazo[4,5-b]pyridin-3-yl)-2,3-dihydro-1H-inden-1-yl)amino)piperidin-1-yl)prop-2-en-1-one]
15 | 7.06 | 7.79 | 6.40 |  | C=CC(=O)N1CCC(N[C@@H]2c3ccc(-n4c(-c5ccccc5)nc5ccc(-c6ccccc6)nc54)cc3CC2F)CC1 (single isomer, unassigned) [Example 324, 1-(4-{[(1R,2*)-5-{2,5-diphenylimidazo[4,5-b]pyridin-3-yl}-2-fluoro-2,3-dihydro-1H-inden-1-yl]amino}piperidin-1-yl)prop-2-en-1-one]
16 | 7.60 | 7.79 | 6.28 |  | C=CC(=O)N1CCC(NC2c3ccc(-n4c(-c5cccnc5N)nc5ccc(-n6ccc(C7CC7)n6)nc54)cc3CC2F)CC1C(F)F (single isomer, unassigned) [Example 336, 1-((2*,4*)-4-(((1*,2*)-5-(2-(2-aminopyridin-3-yl)-5-(3-cyclopropyl-1H-pyrazol-1-yl)-3H-imidazo[4,5-b]pyridin-3-yl)-2-fluoro-2,3-dihydro-1H-inden-1-yl)amino)-2-(difluoromethyl)piperidin-1-yl)prop-2-en-1-one]
17 | 7.00 | 7.60 | 6.69 |  | C=CC(=O)N1CCC(N[C@H]2CCc3cc(-n4c(-c5cccnc5N)nc5ccc(-n6cccn6)nc54)ccc32)CC1CC#N (single isomer, unassigned) [Example 327, 2-((2*,4*)-1-acryloyl-4-(((S)-5-(2-(2-aminopyridin-3-yl)-5-(1H-pyrazol-1-yl)-3H-imidazo[4,5-b]pyridin-3-yl)-2,3-dihydro-1H-inden-1-yl)amino)piperidin-2-yl)acetonitrile]
